Experimental data from patent publication US12280047B2, “Treatment of aneurysms” (Georgia State Research Foundation, Inc., priority 2017, dated 2025).

Tests used:
Assay type in all cases: in vivo
[1] = system: ApoE−/− and ApoE−/−/IDO−/− mice; assay: AngII-induced AAA formation in ApoE−/− and ApoE−/−/IDO−/− mice; conditions: AngII 1000 ng/min/kg, 4 weeks
From the text: (§1) IDO^−/− and ApoE^−/− mice were obtained from Jackson laboratory (Bar Harbor, Maine) in a C57BL/6 background. IDO^−/− mice were crossed with ApoE^−/− mice to generate ApoE^−/−/IDO^−/− mice. Mice were housed in temperature-controlled cages under a 12-hour light/dark cycle and given free access to water and normal chow. All procedures involving animals were approved by the Institutional Animal Care and Use Committee at the University of Oklahoma Health Sciences Center. […] Circ Res. (2014) 114:480-92.
To quantify AAA incidence and size, the maximum width of abdominal aorta was measure with Image Pro Plus software (Media Cybernetics). We quantified aneurysm incidence based on a definition of aneurysm as an external width of the suprarenal aorta that was increased by 50% or greater compared with aortas from saline-infused mice, as described previously (Sparks A R, et al., Imaging of abdominal aortic aneurysms. Am Fam Physician. (2002) 65:1565-70). The average diameter of the normal suprarenal aorta in control mice is 0.8 mm. […]
AngII-induced mouse AAA formation in the atherosclerotic-susceptible strain (ApoE^−/−) has become the most widely used model. […] To unravel the role of the Trp-Kyn pathway in AAA formation ApoE^−/−/IDO^−/− (double-knockout) mice were generated and the outcome of a 4-week AngII infusion (1000 ng/min/kg) in ApoE^−/− and ApoE^−/−/IDO^−/− mice was determined. […]

[2] = system: ApoE−/− and ApoE−/−/IDO−/− mice; assay: Serum cytokine in AngII-infused mice; conditions: 4 weeks, mean ± s.e.m.
From the text: as §1
AngII infusion is intensely associated with vascular inflammation, which is considered a key mediator of AngII-induced AAA formation. See Qin Z, et al., Angiotensin II-induced TLR4 mediated abdominal aortic aneurysm in apolipoprotein E knockout mice is dependent on STAT3. J Mol Cell Cardiol. (2015) 87:160-70; Owens A P, et al., MyD88 deficiency attenuates angiotensin II-induced abdominal aortic aneurysm formation independent of signaling through Toll-like receptors 2 and 4. Arterioscler Thromb Vasc Biol. (2011) 31:2813-9. […] Circ Res. (2014) 114:480-92. Similarly, an increase in IFN-γ expression was evident in the aortas of AngII-treated ApoE^−/− and ApoE^−/−/IDO^−/− mice. The consequent induction of IDO expression in the aortas of AngII-infused ApoE^−/− mice was also observed (FIGS. 2A, 2B, and 2E). […] This may be due to the high content of Trp in mouse diets.

[3] = system: ApoE−/− and ApoE−/−/IDO−/− mice; assay: Blood pressure and heart rate in AngII-infused mice; conditions: 4 weeks, mean ± s.e.m.; for sBP: AngII 1000 ng/min/kg; for Dbp / HR: AngII
From the text: as §1
Circ Res. (2014) 114:480-92.
AngII-induced mouse AAA formation in the atherosclerotic-susceptible strain (ApoE^−/−) has become the most widely used model. See Qin Z, et al., Angiotensin II-induced TLR4 mediated abdominal aortic aneurysm in apolipoprotein E knockout mice is dependent on STAT3. J Mol Cell Cardiol. (2015) 87:160-70; Rateri D L, et al., Prolonged infusion of angiotensin II in ApoE (−/−) mice promotes macrophage recruitment with continued expansion of abdominal aortic aneurysm. Am J Pathol. (2011) 179:1542-8; Cassis L A, et al., ANG II infusion promotes abdominal aortic aneurysms independent of increased blood pressure in hypercholesterolemic mice. Am J Physiol Heart Circ Physiol. (2009) 296:H1660-5; Daugherty A and Cassis L A. Mouse models of abdominal aortic aneurysms. Arterioscler Thromb Vasc Biol. (2004) 24:429-34; Owens A P, 3rd, Rateri D L, Howatt D A, Moore K J, Tobias P S, Curtiss L K, Lu H, Cassis L A and Daugherty A. MyD88 deficiency attenuates angiotensin II-induced abdominal aortic aneurysm formation independent of signaling through Toll-like receptors 2 and 4. Arterioscler Thromb Vasc Biol. (2011) 31:2813-9. To unravel the role of the Trp-Kyn pathway in AAA formation ApoE^−/−/IDO^−/− (double-knockout) mice were generated and the outcome of a 4-week AngII infusion (1000 ng/min/kg) in ApoE^−/− and ApoE^−/−/IDO^−/− mice was determined. As depicted in Table 1 and 2, AngII infusion increased blood pressure without affecting the heart rate or any metabolic parameters.

ApoE−/− mice = assay: Acipimox preventing AngII-induced AAA in aged mice (Example 16); conditions: AngII 1,000 ng/kg/min four weeks
Protocol: To compare the effect of acipimox on treating AngII-induced abdominal aortic aneurysm in young (3 months old) or old (24 months old) mice, male ApoE^−/− mice in the aged mice group were treated with acipimox (0.1% wt) or vehicle control (water) by drinking water for 6 weeks. Four weeks later, mice in both age groups were infused with AngII (1,000 ng/kg/min) or saline (0.9% sodium chloride) by Alzet osmotic pumps for four weeks. AAA incidence and maximal abdominal aorta diameter were examined to evaluate the therapeutic effect of acipimox on AngII-induced AAA in old mice.
To quantify AAA incidence and size, the maximum width of abdominal aorta was measured with Image Pro Plus software (Media Cybernetics). Aneurysm incidence was quantified based on a definition of aneurysm as an external width of the suprarenal aorta that was increased by 50% or greater compared with aortas from saline-infused mice. The average diameter of the normal suprarenal aorta in control mice is 0.705 mm. Therefore, a threshold of 1.06 mm as evidence of aneurysm formation was set. […] After 4-weeks of AngII-infusion, mice where divided into two groups vehicle treated (n=10) or acipimox treated (n=15). Before treatment, the AAA incidence was 20% and 70% in young and old mice, respectively. After six weeks of treatment acipimox, AAA incidence decreased to 25% in the old mice group. […]

Angiotensin II (DRVYIHPF; Angiotensin-2; UniProt P01019 25-32, looked up) [AngII, Angiotensin II (Sigma, A9525) infused to induce AAA in mice]
incidence of AngII-induced AAA ([1]; ApoE−/− mice): 73% | incidence of AngII-induced AAA ([1]; ApoE−/−/IDO−/− mice): 15% | CyPA ([2]; Apoe−/− mice): 771.8 ± 36.8 pM | IFN-y ([2]; Apoe−/− mice): 24.91 ± 1.75 pg/mL | IL -6 ([2]; Apoe−/− mice): 20.07 ± 3.25 pg/mL | TNF - a ([2]; Apoe−/− mice): 123.7 ± 18.2 pg/mL | CyPA ([2]; Apoe−/−/IDO−/− mice): 572.2 ± 42.7 pM | IFN-y ([2]; Apoe−/−/IDO−/− mice): 28.32 ± 2.73 pg/mL | IL -6 ([2]; Apoe−/−/IDO−/− mice): 22.25 ± 5.45 pg/mL | TNF - a ([2]; Apoe−/−/IDO−/− mice): 118.5 ± 16.1 pg/mL | sBP ([3]; Apoe−/− mice): 149.1 ± 19.5 mm Hg | sBP ([3]; Apoe−/−/IDO−/− mice): 155.6 ± 18.4 mm Hg | Dbp ([3]; Apoe−/− mice): 112.7 ± 17.3 mmHg | HR ([3]; Apoe−/− mice): 471 ± 42 Beats/min | Dbp ([3]; Apoe−/−/IDO−/− mice): 119.1 ± 14.9 mmHg | HR ([3]; Apoe−/−/IDO−/− mice): 453 ± 43 Beats/min | AAA incidence (ApoE−/− mice; old (24 months old) ApoE−/− mice): 70% | AAA incidence (ApoE−/− mice; young (3 months old) ApoE−/− mice): 20%
